Patent US20100278849A1, “PROSTATIC ACID PHOSPHATASE ANTIGENS” (priority 2004, published 2010)
“Also recorded” adds a separate entry of the source.

Key:
HLA-A2*0201 = HLA-A2*0201 (Homo sapiens, UniProt P04439, D140Y/D185E/D98H/E176V/E277Q/G131W/G231S/I119V/I121R/I166T/I218V/L300P/L318F/N151K/N90K/P208A/P217A/Q86G/Q94H/R138H/R169H/T345S); type: cell-based
HLA-A2 = HLA-A2 (Homo sapiens, UniProt P04439, D140Y/D185E/D98H/E176V/E277Q/G131W/G231S/I119V/I121R/I166T/I218V/L300P/L318F/N151K/N90K/P208A/P217A/Q86G/Q94H/R138H/R169H/T345S); settings: earlier reports; cited from earlier work

ALDVYNGLL [PAP.299, reference compound]
binding to HLA-A2 (T2 cells) (HLA-A2*0201): no significant binding; also recorded: unable to confirm the strong HLA-A2 binding
HLA-A2 binding previously described (HLA-A2): strong HLA-A2 binding
